# Experimental data as given in article PMC4725968 (Scientific Reports, 2016).
# Residue numbers refer to the chain shown, from its start. Numbers in names are those of the source.
# T1: DERAEC (Escherichia coli, UniProt P0A6L0)
# T1 construct: gene deoC; deoC isolated previously; E. coli BL21(DE3); NiNTA purification; dimer
# T1 sequence (P0A6L0 1-259): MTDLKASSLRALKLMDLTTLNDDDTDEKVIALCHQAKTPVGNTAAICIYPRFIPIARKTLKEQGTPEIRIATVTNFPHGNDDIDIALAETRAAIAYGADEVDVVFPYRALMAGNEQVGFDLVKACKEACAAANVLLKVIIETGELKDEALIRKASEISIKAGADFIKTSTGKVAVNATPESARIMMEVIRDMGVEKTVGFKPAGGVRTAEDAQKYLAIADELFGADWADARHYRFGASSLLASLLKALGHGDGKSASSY
# T2: DERAPA (Pyrobaculum aerophilum, UniProt Q8ZXK7)
# T2 construct: gene deoC; synthetic deoC gene in pET21a, C-terminal 6xHis tag; E. coli BL21(DE3); NiNTA; dimer
# T2 sequence (Q8ZXK7 1-226): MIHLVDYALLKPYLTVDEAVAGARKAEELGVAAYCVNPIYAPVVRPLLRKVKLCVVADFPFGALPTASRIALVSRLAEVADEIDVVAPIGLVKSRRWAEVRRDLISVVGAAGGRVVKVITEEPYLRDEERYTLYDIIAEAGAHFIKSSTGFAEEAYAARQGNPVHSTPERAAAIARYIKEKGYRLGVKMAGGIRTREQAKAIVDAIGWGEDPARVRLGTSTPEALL
# T3: DERATM (Thermotoga maritima, UniProt Q9X1P5)
# T3 construct: gene deoC; synthetic deoC gene in pET21a, C-terminal 6xHis tag; E. coli BL21(DE3); NiNTA; dimer
# T3 sequence (Q9X1P5 1-248): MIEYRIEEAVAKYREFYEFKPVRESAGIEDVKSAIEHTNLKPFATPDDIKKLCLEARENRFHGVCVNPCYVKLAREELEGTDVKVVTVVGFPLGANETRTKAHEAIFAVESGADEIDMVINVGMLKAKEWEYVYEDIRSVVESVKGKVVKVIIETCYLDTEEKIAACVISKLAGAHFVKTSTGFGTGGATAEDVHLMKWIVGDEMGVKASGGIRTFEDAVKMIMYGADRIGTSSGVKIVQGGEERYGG
# T4: DERACP (Colwellia psychrerythraea, UniProt Q483R4)
# T4 construct: gene deoC; synthetic deoC gene in pET21a, C-terminal 6xHis tag; E. coli BL21(DE3); NiNTA; dimer
# T4 sequence (Q483R4 1-257): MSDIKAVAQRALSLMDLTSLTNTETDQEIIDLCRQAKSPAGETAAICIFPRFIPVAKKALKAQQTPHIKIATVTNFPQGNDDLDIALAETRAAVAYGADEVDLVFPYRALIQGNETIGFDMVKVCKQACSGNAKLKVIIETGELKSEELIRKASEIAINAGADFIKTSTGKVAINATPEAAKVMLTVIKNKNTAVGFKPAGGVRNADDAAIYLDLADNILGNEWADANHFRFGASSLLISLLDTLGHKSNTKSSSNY
# B1: 2-deoxy-D-ribose-5-phosphate aldolase (DERA) from Pyrobaculum aerophilum, wild type (enzyme)
# chain: T2 sequence (Q8ZXK7 1-226)
# notes: 2-deoxy-D-ribose-5-phosphate aldolase (DERA, deoC gene) of Pyrobaculum aerophilum; gene synthesised by GenScript, in pET21a; also called DERAPA; hyperthermophilic DERA; source: E. coli BL21(DE3), purified (Ni-NTA)
# B2: 2-deoxy-D-ribose-5-phosphate aldolase (DERA) from Colwellia psychrerythraea, wild type (enzyme, UniProt Q483R4 1-257, looked up)
# chain: T4 sequence (Q483R4 1-257)
# notes: 2-deoxy-D-ribose-5-phosphate aldolase (DERA, deoC gene) of Colwellia psychrerythraea; gene synthesised by GenScript, in pET21a; also called DERACP; psychrophilic DERA; source: E. coli BL21(DE3), purified (Ni-NTA, SEC)
# B3: 2-deoxy-D-ribose-5-phosphate aldolase (DERA) from Thermotoga maritima, wild type (enzyme)
# chain: T3 sequence (Q9X1P5 1-248)
# notes: 2-deoxy-D-ribose-5-phosphate aldolase (DERA, deoC gene) of Thermotoga maritima; gene synthesised by GenScript, in pET21a; also called DERATM; hyperthermophilic DERA; source: E. coli BL21(DE3), purified (Ni-NTA)
# B4: A95C mutant of DERA from Escherichia coli (enzyme)
# chain: T1 sequence (P0A6L0 1-259) with A95C
# modifications: intermolecular disulfide bridge C95-C95 in the oxidised form
# notes: DERA (deoC gene) of Escherichia coli with the mutation A95C; also called DERAEC A95C; source: E. coli BL21(DE3), purified (Ni-NTA)
# Columns and labels:
# DERAEC = molecular target: T1, DERAEC; assay: steady-state kinetics, coupled GDH/TPI assay, NADH at […] nm; type: biochemical; conditions: retro-aldol cleavage; 25 °C
# DERASH = molecular target: T5, DERASH (Shewanella halifaxensis, UniProt B0TQ91); assay: as above; type: biochemical; conditions: retro-aldol cleavage; 25 °C
# T5 construct: gene deoC; deoC isolated from genomic DNA; E. coli BL21(DE3); NiNTA purification; dimer
# T5 sequence (B0TQ91 whole entry): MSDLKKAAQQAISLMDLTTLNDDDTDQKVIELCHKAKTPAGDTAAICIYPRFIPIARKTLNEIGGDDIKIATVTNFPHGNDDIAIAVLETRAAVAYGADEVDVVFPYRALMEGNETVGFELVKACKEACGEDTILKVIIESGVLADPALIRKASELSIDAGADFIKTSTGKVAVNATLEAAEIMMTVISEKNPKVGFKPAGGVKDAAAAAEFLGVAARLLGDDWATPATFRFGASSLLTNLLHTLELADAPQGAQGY
# DERAPA = molecular target: T2, DERAPA; assay: as above; type: biochemical; conditions: retro-aldol cleavage; 25 °C
# DERATM = molecular target: T3, DERATM; assay: as above; type: biochemical; conditions: retro-aldol cleavage; 25 °C
# DERACP = molecular target: T4, DERACP; assay: as above; type: biochemical; conditions: retro-aldol cleavage; 25 °C
# [1] = molecular target: the molecule itself; assay: SEC; Superdex 200 10/300 GL, 100 mM KPi, 150 mM NaCl (pH 7); 1-5 mg protein loaded; calibrated with five protein standards between 12.5 and 200 kDa; hydrodynamic size
# [2] = molecular target: the molecule itself; assay: crystal structure; sitting-drop vapour diffusion at 20 °C; data at 100 K; DERACP tetragonal (P4(1)2(1)2, two chains per asymmetric unit) and hexagonal (P6(1)22, four chains) forms, DERASH (C2, four chains)
# [3] = molecular target: the molecule itself; assay: cross-linking; engineered intermolecular disulfide (A95C) across the dimer interface; oxidised against reduced mutant on SDS-PAGE under non-reducing conditions
molecule,measurement,setting,value
O=P(O)(O)OC[C@H]1OC(O)C[C@@H]1O (stereo partly drawn) [2-deoxy-D-ribose-5-phosphate],KM,DERAEC,Both KM and kcat values decrease with increasing optimal growth temperature of the organism
same,KM,DERASH,Both KM and kcat values decrease with increasing optimal growth temperature of the organism
same,KM,DERAPA,Both KM and kcat values decrease with increasing optimal growth temperature of the organism
same,KM,DERATM,Both KM and kcat values decrease with increasing optimal growth temperature of the organism
same,KM,DERACP,Both KM and kcat values decrease with increasing optimal growth temperature of the organism
B1,stoichiometry N,[1],2
B2,stoichiometry N,[2],2
B3,stoichiometry N,[1],2
B4,binding result,[3],binds
